Test system: HOP-62 complex spheroids with HUVEC/MSC, viability
Test: Anticancer human tumor HOP-62 cell line growth inhibition [RAS];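 also: spheroids exposed to agents for seven days before readout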;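 as to viability, T/C: 100% = DMSO vehicle control viability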
Details: for IC50: curve of first compound; for viability, T/C: stronger effect = lower value
In short: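 Agents were tested in combination matrices in half-log decrements from a top concentration at or near clinical Cmax (10 microM if undetermined). Targets were multi-cell spheroids of tumour lines plus HUVEC and MSC stromal cells.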

**Q.** What does the source list for CC(C)NCC(C(=O)N1CCN(c2ncnc3c2C(C)CC3O)CC1)c1ccc(Cl)cc1 (configuration not stated) + CCn1c(-c2cccnc2C(C)OC)c2c3cc(ccc31)N1CCOC(CC(NC(=O)C(C(C)C)N(C)C(=O)C3(F)CCN(C(=O)C#CC(C)(C)N(C)C)CC3)C(=O)N3CCCC(N3)C(=O)OCC(C)(C)C2)C1?
**A.** IC50 (second compound 0.000949 µM): 3570 nM; IC50 (second compound 0.003 µM): 2210 nM; IC50 (second compound 0.00949 µM): 1650 nM; IC50 (second compound 0.03 µM): 1120 nM; IC50 (second compound 0.0949 µM): 1170 nM; IC50 (second compound 0.3 µM): 742 nM; viability, T/C (second compound 0.000949 µM, first compound 0.0316 µM): 98.8%; viability, T/C (second compound 0.000949 µM, first compound 0.1 µM): 119%; viability, T/C (second compound 0.000949 µM, first compound 0.316 µM): 65.4%; viability, T/C (second compound 0.000949 µM, first compound 1 µM): 76.4%; viability, T/C (second compound 0.000949 µM, first compound 3.16 µM): 61.6%; viability, T/C (second compound 0.000949 µM, first compound 10 µM): 20.3%; viability, T/C (second compound 0.003 µM, first compound 0.0316 µM): 101%; viability, T/C (second compound 0.003 µM, first compound 0.1 µM): 105%; viability, T/C (second compound 0.003 µM, first compound 0.316 µM): 65.3%; viability, T/C (second compound 0.003 µM, first compound 1 µM): 67.7%; viability, T/C (second compound 0.003 µM, first compound 3.16 µM): 47.1%; viability, T/C (second compound 0.003 µM, first compound 10 µM): 21.2%; viability, T/C (second compound 0.00949 µM, first compound 0.0316 µM): 81.7%; viability, T/C (second compound 0.00949 µM, first compound 0.1 µM): 100%; viability, T/C (second compound 0.00949 µM, first compound 0.316 µM): 80.1%; viability, T/C (second compound 0.00949 µM, first compound 1 µM): 58.9%; viability, T/C (second compound 0.00949 µM, first compound 3.16 µM): 38.5%; viability, T/C (second compound 0.00949 µM, first compound 10 µM): 22%; viability, T/C (second compound 0.03 µM, first compound 0.0316 µM): 122%; viability, T/C (second compound 0.03 µM, first compound 0.1 µM): 83.4%; viability, T/C (second compound 0.03 µM, first compound 0.316 µM): 72%; viability, T/C (second compound 0.03 µM, first compound 1 µM): 61.8%; viability, T/C (second compound 0.03 µM, first compound 3.16 µM): 28.3%; viability, T/C (second compound 0.03 µM, first compound 10 µM): 23%; viability, T/C (second compound 0.0949 µM, first compound 0.0316 µM): 79%; viability, T/C (second compound 0.0949 µM, first compound 0.1 µM): 80.4%; viability, T/C (second compound 0.0949 µM, first compound 0.316 µM): 69%; viability, T/C (second compound 0.0949 µM, first compound 1 µM): 56.2%; viability, T/C (second compound 0.0949 µM, first compound 3.16 µM): 25.5%; viability, T/C (second compound 0.0949 µM, first compound 10 µM): 21.1%; viability, T/C (second compound 0.3 µM, first compound 0.0316 µM): 73.2%; viability, T/C (second compound 0.3 µM, first compound 0.1 µM): 78.9%; viability, T/C (second compound 0.3 µM, first compound 0.316 µM): 59.3%; viability, T/C (second compound 0.3 µM, first compound 1 µM): 47%; viability, T/C (second compound 0.3 µM, first compound 3.16 µM): 26.4%; viability, T/C (second compound 0.3 µM, first compound 10 µM): 16.6%
